Reference: US10604554B2, “Double-acylated GLP-1 derivatives” (Novo Nordisk A/S, priority 2012, dated 2020)

Key:
human GLP-1 receptor [1] = molecular target: T1, human GLP-1 receptor (Homo sapiens, UniProt P43220); assay: In vitro potency (CRE luciferase; whole cells); assay type: cell-based; parameters: EC50/pM (ratio 1% HSA/0% HSA): unit not given here; settings: for EC50/pM (ratio 1% HSA/0% HSA): ratio of EC50 at 1% HSA to EC50 at 0% HSA
T1 construct: expressed in transfected cells; host or cells: BHK cells, clone FCW467-12A/KZ10-1 (parent line BHKTS13), further transfected with CRE luciferase
How it was run: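 Stably transfected BHK cells carrying human GLP-1R and a CRE–firefly luciferase reporter, 5×10^3 cells/well in assay medium, run with 0% or 1% HSA in assay buffer.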

[2] = Pharmacokinetic (PK) study in minipig; settings: male, Göttingen, in vivo, iv
Description: The purpose of this study is to determine the protraction in vivo of the GLP-1 derivatives after i.v. administration to minipigs, i.e. the prolongation of their time of action. This is done in a pharmacokinetic (PK) study, where the terminal half-life of the derivative in question is determined. By terminal half-life is generally meant the period of time it takes to halve a certain plasma concentration, measured after the initial distribution phase.
Study A: Male Göttingen minipigs were obtained from Ellegaard Göttingen Minipigs (Dalmose, Denmark) approximately 7-14 months of age and weighing from approximately 16-35 kg were used in the studies. The minipigs were housed individually and fed restrictedly once or twice daily with SDS minipig diet (Special Diets Services, Essex, UK). After at least 2 weeks of acclimatisation two permanent central venous catheters were implanted in vena cava caudalis or cranialis in each animal. The animals were allowed 1 week recovery after the surgery, and were then used for repeated pharmacokinetic studies with a suitable wash-out period between successive GLP-1 derivative dosings.
The animals were fasted for approximately 18 h before dosing and from 0 to 4 h after dosing, but had ad libitum access to water during the whole period.
The GLP-1 derivatives were dissolved in 50 mM sodium phosphate, 145 mM sodium chloride, 0.05% tween 80, pH 7.4 to a concentration of usually from 20-60 nmol/ml. […] Blood samples (for example 0.8 ml) were collected in EDTA buffer (8 mM) and then centrifuged at 4° C. and 1942 G for 10 minutes.
Study B: Male Göttingen minipigs were obtained from Ellegaard Göttingen Minipigs (Dalmose, Denmark) approximately 5 months of age and weighing from approximately 9 kg were used in the studies. The minipigs were housed in pens with straw as bedding, six together in each pen and fed restrictedly once or twice daily with Altromin 9023 minipig diet (Chr. Petersen A/S, DK-4100 Ringsted) or Standard SMP(E) minipig diet (Special Diet Services (SDS), UK). The pigs were used for repeated pharmacokinetic studies with a suitable wash-out period between successive GLP-1 derivative dosings.
The GLP-1 derivatives were dissolved in 50 mM sodium phosphate, 145 mM sodium chloride, 0.05% tween 80, pH 7.4 to a concentration of usually from 20-60 nmol/ml. Intravenous injections (the volume corresponding to usually 2 nmol/kg, for example 0.1 ml/kg) of the compounds were given as intravenous injections via a Venflon inserted in an ear vein, while they are placed unanaesthetised in a sling. The dose volume was 0.1 ml/kg, and blood was sampled at predefined time points for up till 17 days post dosing (samples was taken with syringe from a jugular vein).
Individual plasma concentration-time profiles were analyzed by a non-compartmental model in Phoenix WinNonLin ver. […] (Pharsight Inc., Mountain View, Calif., USA), and the resulting terminal half-lives (harmonic mean) determined.

[3] = Pharmacokinetic (PK) study in rat; settings: male, Sprague Dawley, in vivo, iv, 6 nmol/kg
[4] = system: Landrace Yorkshire Duroc (LYD) pigs; assay: Pharmacodynamic (PD) study in pigs, food intake; assay type: in vivo, pig; settings: single s.c. dose 3.0 nmol/kg
Description: The purpose of this experiment was to investigate the effect of a couple of Example compounds on food intake in pigs. This was done in a pharmacodynamic (PD) study as described below, in which food intake was measured from 1 to 4 days after administration of a single dose of the GLP-1 derivative, as compared to a vehicle-treated control group.
Female Landrace Yorkshire Duroc (LYD) pigs, approximately 3 months of age, weighing approximately 30-35 kg were used (n=3-4 per group). The animals were housed in a group for approximately 1 week during acclimatisation to the animal facilities. During the experimental period the animals were placed in individual pens at least 2 days before dosing and during the entire experiment for measurement of individual food intake. The animals were fed ad libitum with pig fodder (Svinefoder Danish Top) at all times both during the acclimatisation and the experimental period. Food intake was monitored on line by logging the weight of fodder every 15 minutes. The system used was Mpigwin (Ellegaard Systems, Faaborg, Denmark).
The phosphate buffer serves as vehicle. Animals are dosed with a single subcutaneous dose of the GLP-1 derivative or vehicle (dose volume 0.025 ml/kg) on the morning of day 1, and food intake is measured for 1 day after dosing. On the last day of each study, 1-4 days after dosing, a blood sample for measurement of plasma exposure of the GLP-1 derivative is taken from the heart in anaesthetised animals. The animals are thereafter euthanised with an intra-cardial overdose of pentobarbitone.
Food intake is calculated as mean±SEM food intake in 24 h intervals (0-24 h, 24-48 h, and 48-72 h). In Table 6 below the food intake is indicated as percentage of the food intake of the vehicle group in the same time interval (dosage 3.0 nmol/kg).
Statistical comparisons of the food intake in the 24 h intervals in the vehicle vs. GLP-1 derivative group are done using two-way-ANOVA repeated measures, followed by Bonferroni post-test.

human GLP-1 receptor [5] = molecular target: T1, human GLP-1 receptor; assay: GLP-1 receptor binding (SPA, displacement of 125I-GLP-1); settings: Receptor binding affinity IC50 (high HSA), 2.0% HSA (high albumin)
How it was run: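 Membranes from a stably transfected hamster cell line, 5-10 ug protein/sample, with WGA SPA beads and [125I]-GLP-1(7-36)NH2 at 0.06 nM final. Incubated 120 min at 30 °C with shaking, then counted.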

T1 sequence (P43220 24-463): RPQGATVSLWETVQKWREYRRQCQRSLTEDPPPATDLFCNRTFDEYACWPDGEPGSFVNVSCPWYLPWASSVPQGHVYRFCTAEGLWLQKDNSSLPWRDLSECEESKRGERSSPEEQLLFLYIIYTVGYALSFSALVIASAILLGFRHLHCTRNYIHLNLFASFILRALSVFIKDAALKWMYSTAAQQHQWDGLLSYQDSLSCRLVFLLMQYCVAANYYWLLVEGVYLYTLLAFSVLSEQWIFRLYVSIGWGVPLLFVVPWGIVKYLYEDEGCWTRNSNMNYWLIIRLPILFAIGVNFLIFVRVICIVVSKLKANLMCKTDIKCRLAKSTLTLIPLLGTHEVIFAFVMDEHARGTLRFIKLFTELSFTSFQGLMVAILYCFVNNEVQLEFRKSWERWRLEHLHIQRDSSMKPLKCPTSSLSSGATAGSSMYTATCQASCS

| Structure (SMILES) | EC50/pM (ratio 1% HSA/0% HSA) (human GLP-1 receptor [1]) | half-life [2] | half-life [3] | PD in pig, food intake (% of vehicle) for hours 0-24 ([4]; 0-24 h) | PD in pig, food intake (% of vehicle) for hours 24-48 ([4]; 24-48 h) | EC50 (human GLP-1 receptor [1]; In vitro potency (CRE luciferase) EC50 (1% HSA), BHK cells, 1% HSA) | IC50 (human GLP-1 receptor [5]) |
| --- | --- | --- | --- | --- | --- | --- | --- |
| CC[C@H](C)[C@H](NC(=O)[C@H](Cc1ccccc1)NC(=O)[C@H](CCC(=O)O)NC(=O)[C@H](CCCCNC(=O)[C@@H](N)CCCCNC(=O)[C@@H](N)CCCCNC(=O)CC[C@H](NC(=O)CCCCCCCCCCCOc1ccc(C(=O)O)cc1)C(=O)O)NC(=O)[C@H](C)NC(=O)[C@H](C)NC(=O)[C@H](CCC(N)=O)NC(=O)CNC(=O)[C@H](CCC(=O)O)NC(=O)[C@H](CC(C)C)NC(=O)[C@H](Cc1ccc(O)cc1)NC(=O)[C@H](CO)NC(=O)[C@H](CO)NC(=O)[C@@H](NC(=O)[C@H](CC(=O)O)NC(=O)[C@H](CO)NC(=O)[C@@H](NC(=O)[C@H](Cc1ccccc1)NC(=O)[C@@H](NC(=O)CNC(=O)[C@H](CCC(=O)O)NC(=O)C(C)(C)NC(=O)[C@@H](N)Cc1c[nH]cn1)[C@@H](C)O)[C@@H](C)O)C(C)C)C(=O)N[C@@H](C)C(=O)N[C@@H](Cc1c[nH]c2ccccc12)C(=O)N[C@@H](CC(C)C)C(=O)N[C@H](C(=O)N[C@@H](CCC(N)=O)C(=O)NCC(=O)N[C@@H](CCCNC(=N)N)C(=O)N[C@@H](CCCCNC(=O)[C@@H](N)CCCCNC(=O)[C@@H](N)CCCCNC(=O)CC[C@H](NC(=O)CCCCCCCCCCCOc1ccc(C(=O)O)cc1)C(=O)O)C(=O)O)C(C)C [Example 9, N^ε26-[(2S)-2-amino-6-[[(2S)-2-amino-6-[[(4S)-4-carboxy-4-[12-(4-carboxyphenoxy)dodecanoylamino]butanoyl]amino]hexanoyl]amino]hexanoyl], N^ε37-[(2S)-2-amino-6-[[(2S)-2-amino-6-[[(4S)-4-carboxy-4-[12-(4-carboxyphenoxy)dodecanoylamino]butanoyl]amino]hexanoyl]amino]hexanoyl]-[Aib^8,Gln^34,Lys^37]-GLP-1-(7-37)-peptide] | 72 | 72 h | 20 h |  |  |  |  |
| CC[C@H](C)[C@H](NC(=O)[C@H](Cc1ccccc1)NC(=O)[C@H](CCC(=O)O)NC(=O)[C@H](CCCCNC(=O)[C@@H](N)CCCCNC(=O)[C@H](CO)NC(=O)CNC(=O)[C@H](CO)NC(=O)CC[C@H](NC(=O)CCCCCCCCCCCOc1ccc(C(=O)O)cc1)C(=O)O)NC(=O)[C@H](C)NC(=O)[C@H](C)NC(=O)[C@H](CCC(N)=O)NC(=O)CNC(=O)[C@H](CCC(=O)O)NC(=O)[C@H](CC(C)C)NC(=O)[C@H](Cc1ccc(O)cc1)NC(=O)[C@H](CO)NC(=O)[C@H](CO)NC(=O)[C@@H](NC(=O)[C@H](CC(=O)O)NC(=O)[C@H](CO)NC(=O)[C@@H](NC(=O)[C@H](Cc1ccccc1)NC(=O)[C@@H](NC(=O)CNC(=O)[C@H](CCC(=O)O)NC(=O)C(C)(C)NC(=O)[C@@H](N)Cc1c[nH]cn1)[C@@H](C)O)[C@@H](C)O)C(C)C)C(=O)N[C@@H](C)C(=O)N[C@@H](Cc1c[nH]c2ccccc12)C(=O)N[C@@H](CC(C)C)C(=O)N[C@H](C(=O)N[C@@H](CCCNC(=N)N)C(=O)NCC(=O)N[C@@H](CCCNC(=N)N)C(=O)N[C@@H](CCCCNC(=O)[C@@H](N)CCCCNC(=O)[C@H](CO)NC(=O)CNC(=O)[C@H](CO)NC(=O)CC[C@H](NC(=O)CCCCCCCCCCCOc1ccc(C(=O)O)cc1)C(=O)O)C(=O)O)C(C)C [Example 24] | 37 | 123 h |  | 73 % of vehicle | 73 % of vehicle | 0.126 nM | 136 nM |
